Laboratory results from patent publication US20240108611A1, “COMPOSITION FOR PREVENTING OR TREATING METABOLIC DISEASES, CONTAINING TORSEMIDE AND CROMOLYN” (ONCOCROSS CO., LTD., priority 2021, published 2024).

How the values were obtained:
[1] = system: nonalcoholic steatohepatitis (NASH) animal model; experiment: Body weight change in nonalcoholic steatohepatitis (NASH) animal model, high fat diet; assay type: in vivo, ICR mice; details: high-fat diet mice; 10 mg/kg each drug i.p. three times a week for 6 weeks
NASH animal model = experiment: Triglycerides in liver tissue by Oil Red O staining in NASH animal model; details: HFD mice after 13 weeks of diet and drug administration

## O=C(O)c1cc(=O)c2c(OCC(O)COc3cccc4oc(C(=O)O)cc(=O)c34)cccc2o1 [cromolyn]
[1]
  change in body weight compared to high-fat diet control group (HFD PBS): no significant change
NASH animal model
  triglycerides in liver tissue (Oil Red O staining) versus HFD PBS group: relatively decreased
